Columns and labels:
rabbit aortic strips = test: Ca+2 antagonism: relaxation of potassium-contracted rabbit aortic strips; format: cell-based; details: Oryctolagus cuniculus, strips contracted with 100 millimoles potassium ion, read-out: percent relaxation (P.R.); for inhibition at 10 µM: 10^-5 M bath concentration; for inhibition at 1 µM: 10^-6 M bath concentration
Protocol: After a stable active tension has developed in the strip, as measured by Statham UC-2 force transducers and recorded on an eight channel Beckman Dynograph Polygraphic Recorder, an amount of the antagonist was added to the organ bath to make a 10^-5 molar concentration of antagonist. The depressant effect, expressed as percent relaxation, was taken from the mean of at least two experiments. […] A Ca^+2 antagonist producing a 20 percent relaxation of aortic tissue in this test procedure at a 10^-5 molar bath concentration of the antagonist, generally produced a significant reduction in blood pressure when a sufficient amount is given to the spontaneously hypertensive rat.
(§1) The following examples illustrate the preparation of a representative number of compounds of this invention. After each example, the Ca^+2 antagonist activity of the compound is presented in terms of percent relaxation (P.R.) at the stated concentration. Similarly, the antihypertensive activity is reported in terms of millimeters mercury (mmHg) blood pressure (B.P.) reduction at the stated time post oral dosing with the reported amount of compound.

[1] = system: spontaneously hypertensive rats; test: Systolic blood pressure lowering in spontaneously hypertensive rats; format: in vivo, rat
Protocol: The in vivo blood pressure lowering ability of the compounds of this invention was established by measuring the systolic pressure of spontaneously hypertensive rats with a Decker Caudal Plethysmograph or similar sensor device. The compound being tested is administered to groups of four rats and their blood pressure is read prior to compound administration and at 1.5 and 4 hours after compound administration. Depending upon the behavior of the compound being tested, the schedule of blood pressure readings and route of administration is modified. Initially the compounds are administered orally but where compound solubility is a factor, the compounds may be administered parenterally (i.e. i.p., i.m., s.c., i.v., etc.) as desired. The compounds of this invention were initially administered orally at a standard testing dose of 50 mg/kg., and where appropriate, smaller doses were administered to obtain a potency profile.
as §1

SMILES | inhibition at 10 µM (rabbit aortic strips) [%] | blood pressure (B.P.) reduction ([1]; 5 mg/kg oral, at 1.5 hours) [mmHg] | blood pressure (B.P.) reduction ([1]; 5 mg/kg oral, at 4 hours) [mmHg] | blood pressure (B.P.) reduction ([1]; 10 mg/kg oral, at 1.5 hours) [mmHg] | blood pressure (B.P.) reduction ([1]; 10 mg/kg oral, at 4 hours) [mmHg] | blood pressure (B.P.) reduction ([1]; 25 mg/kg oral, at 1.5 hours) [mmHg] | blood pressure (B.P.) reduction ([1]; 25 mg/kg oral, at 4 hours) [mmHg] | blood pressure (B.P.) reduction ([1]; 50 mg/kg oral, at 1.5 hours) [mmHg] | blood pressure (B.P.) reduction ([1]; 50 mg/kg oral, at 4 hours) [mmHg] | inhibition at 1 µM (rabbit aortic strips) [%] | blood pressure (B.P.) reduction ([1]; 2.5 mg/kg oral, at 1.5 hours) [mmHg] | blood pressure (B.P.) reduction ([1]; 2.5 mg/kg oral, at 4 hours) [mmHg]
COC(=O)C1=C(C)NC2=C(C(=O)CN(C)C2)C1c1c(F)c(F)c(F)c(F)c1F (centres unmarked) [Example 1, 1,4,5,6,7,8-Hexahydro-2,7-dimethyl-4-[2,3,4,5,6-pentafluorophenyl]-5-oxo-1,7-naphthyridine-3-carboxylic Acid Methyl Ester] | 22.9 | -21 | -10 | -63 | -31 | -71 | -49 | -95 | -89 |  |  | 
COC(=O)C1=C(C)NC2=C(C(=O)CNC2)C1c1c(F)c(F)c(F)c(F)c1F (centres unmarked) [Example 3, 1,4,5,6,7,8-Hexahydro-2-methyl-5-oxo-4-(2,3,4,5,6-pentafluorophenyl)-1,7-naphthyridine-3-carboxylic Acid Methyl Ester] | 78.7 | -48 | -36 | -79 | -24 | -76 |  | -64 | -88 | 65.2 | -34 | -30
COC(=O)C1=C(C)NC2=C(C(=O)CN(Cc3ccccc3)C2)C1c1c(F)c(F)c(F)c(F)c1F (centres unmarked) [Example 2, 1,4,5,6,7,8-Hexahydro-2-methyl-5-oxo-4-(2,3,4,5,6-pentafluorophenyl)-7-(phenylmethyl)-1,7-naphthyridine-3-carboxylic Acid Methyl Ester] |  |  |  |  |  |  |  | -20 | -23 | 56 |  | 
